Test results as given in US20160311882A1, “Novel Compound for Treatment of Severe Hypoglycemia” (ELI LILLY AND COMPANY, priority 2013, published 2016).
Like-named read-outs stand apart in the source and are kept apart here. Each block holds one molecule with its values, some of them ahead of it. Non-standard residues stand in square brackets, D forms with d. Residues, ends and D or L forms follow the SMILES beside them. No end group written: not given here. Aib = CC(C)(N)C(=O)O

Assays:
[1] = format: physicochemical
Method: (§1) The compound of SEQ ID NO: 2 is dissolved in H2O to a 10 mg/mL concentration (peptide content), filtered through a 0.22 μm filter (Millex, SLGV004SL), and then diluted to 1 mg/mL in Buffer P5 (10 mM Histidine, 150 mM NaCl in H20, pH 5.0) or Buffer P6 (10 mM Histidine, 150 mM NaCl in H20, pH 6.0). Each solution is transferred to three vials and autoclaved. Samples are then maintained at 4° C., 30° C. and 40° C. Samples are visually assessed at different time points for turbidity and phase separation. Stability of the compound is assessed by analytical reverse phase HPLC (RP-HPLC) on a Phenomenex Aeris Widepore, 3.6 μm, XB-C18 4.6×100 mm column (P/NO 00D-4482-E0) heated at 60° C. with a AB (A=0.05% TFA/H2O; B=0.04% TFA/acetonitrile) gradient of 5% B isocratic over 5 min, 5 to 25% B over 20 minutes, 25 to 30% B over 30 min, and 30 to 45% B over 10 min with a flow rate of 1.2 mL/min (wavelength of 220 ηm).

[2] = Chemical stability by RP-HPLC (% main peak); format: physicochemical; settings: for 4° C. % Main Peak / 30° C. % Main Peak / 40° C. % Main Peak: 4 weeks
Method: as §1
The compound of SEQ ID NO: 2 also maintains chemical stability at pH 5 (Buffer P5) and pH 6 (Buffer P6) when maintained at 4° C., 30° C. and 40° C. for 4 weeks.

[3] = Physical stability test using Thioflavin T binding assay (fibrillation); format: physicochemical; settings: 25° C.; for Thioflavin T fluorescence t = 0 h / Thioflavin T fluorescence t = 48 h / Thioflavin T fluorescence t = 96 h: 1 mg/mL, stirred 300 rpm
Method: Fibrillation is a common problem when glucagon is formulated in aqueous solution. To assess the level of fibrillation of the compound of the present invention, a Thioflavin T binding assay is performed.
All samples are mechanically stressed at 25° C. in a magnetic stir plate set at 300 rpm. […] Raw data is collected with Softmax Pro 5.4.1 (Molecular Devices) and imported to Excel.

blood glucose levels = assay: Effects of compound on blood glucose levels in C57/Bl6 male mice; format: in vivo; settings: for Blood glucose levels: mean ± SEM of 4 mice
Method: To determine the effects of the compound of SEQ ID NO: 2 on blood glucose levels, the compound is administered to C57/B 16 mice. Three month old male C57BL6 mice (Harlan Laboratories) are used Animals are individually housed in a temperature-controlled (24° C.) facility with a 12 hour light/dark cycle, and have free access to food and water. After 1 week acclimation to the facility, mice are randomized to treatment groups (n=4/group). Test compound is formulated in Buffer 2 (see Physical stability test using Thioflavin T binding assay). On the morning of test, food is removed at 08:00 AM. Two hours after food is removed, the test compound is given subcutaneously at 0, 0.3, 1, 3 or 10 μg/kg doses. Blood glucose is measured at time 0, 15, 30, 60 and 120 minutes after test compound administration with an ACCU-CHECK® (Roche Diagnostics) glucometer. […] Results are expressed as mean±standard error mean (SEM) of 4 mice per group.
Blood glucose levels at 10 μg/kg of compound of SEQ ID NO: 2 is taken as the maximum value.

[4] = molecular target: T1, human glucagon receptor (hGR) (human, UniProt P47871 26-477); assay: cell-based or functional assay
T1 sequence (P47871 26-477): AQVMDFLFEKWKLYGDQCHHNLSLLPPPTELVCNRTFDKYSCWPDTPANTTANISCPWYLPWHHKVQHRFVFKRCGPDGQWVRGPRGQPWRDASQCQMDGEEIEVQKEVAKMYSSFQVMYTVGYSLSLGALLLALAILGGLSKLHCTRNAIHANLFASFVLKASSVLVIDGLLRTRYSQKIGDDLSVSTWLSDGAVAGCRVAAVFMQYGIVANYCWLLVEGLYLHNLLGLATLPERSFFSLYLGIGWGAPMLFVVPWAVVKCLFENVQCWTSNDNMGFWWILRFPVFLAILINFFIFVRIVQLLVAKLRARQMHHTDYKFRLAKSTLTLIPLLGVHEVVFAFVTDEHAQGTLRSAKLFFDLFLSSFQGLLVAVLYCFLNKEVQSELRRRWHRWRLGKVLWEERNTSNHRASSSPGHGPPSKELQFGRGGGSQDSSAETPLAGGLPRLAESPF

[5] = molecular target: T1, human glucagon receptor (hGR); assay: SPA competition against 125I-labelled glucagon on 293HEK hGR membranes, Cheng-Prusoff
Method: Plates are sealed, mixed end over end, and read with a MicroBeta® scintillation counter after 12 hours of settling time at room temperature.

[6] = molecular target: T2, mouse glucagon receptor (mGR) (mouse, UniProt Q61606 27-485); assay: SPA competition against 125I-labelled glucagon on 293HEK mGR membranes, Cheng-Prusoff
T2 construct: whole, on cells; Assay used crude plasma membranes of the expressing 293HEK cells
T2 sequence (Q61606 27-485): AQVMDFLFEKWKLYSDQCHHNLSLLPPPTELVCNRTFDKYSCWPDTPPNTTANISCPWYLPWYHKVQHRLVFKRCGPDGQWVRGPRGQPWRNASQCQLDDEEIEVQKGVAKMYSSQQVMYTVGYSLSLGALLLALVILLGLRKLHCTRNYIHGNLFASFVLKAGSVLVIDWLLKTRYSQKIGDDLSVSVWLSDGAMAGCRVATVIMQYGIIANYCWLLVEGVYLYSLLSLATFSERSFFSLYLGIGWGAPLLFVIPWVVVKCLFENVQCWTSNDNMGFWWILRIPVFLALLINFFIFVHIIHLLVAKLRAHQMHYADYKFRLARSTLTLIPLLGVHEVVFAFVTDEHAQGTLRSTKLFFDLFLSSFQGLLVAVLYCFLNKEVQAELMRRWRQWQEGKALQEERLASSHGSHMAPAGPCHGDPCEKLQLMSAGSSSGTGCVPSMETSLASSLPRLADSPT

[7] = molecular target: T3, human glucose-dependent insulinotropic peptide receptor (GIP-R) (human, UniProt P48546 22-466); assay: SPA competition against radioiodinated GIP on CHO-S human GIP-R membranes, Cheng-Prusoff
T3 construct: whole, on cells; Assay used crude plasma membranes of the expressing CHO-S cells; also called human GIP-R; hGIP-R
T3 sequence (looked up): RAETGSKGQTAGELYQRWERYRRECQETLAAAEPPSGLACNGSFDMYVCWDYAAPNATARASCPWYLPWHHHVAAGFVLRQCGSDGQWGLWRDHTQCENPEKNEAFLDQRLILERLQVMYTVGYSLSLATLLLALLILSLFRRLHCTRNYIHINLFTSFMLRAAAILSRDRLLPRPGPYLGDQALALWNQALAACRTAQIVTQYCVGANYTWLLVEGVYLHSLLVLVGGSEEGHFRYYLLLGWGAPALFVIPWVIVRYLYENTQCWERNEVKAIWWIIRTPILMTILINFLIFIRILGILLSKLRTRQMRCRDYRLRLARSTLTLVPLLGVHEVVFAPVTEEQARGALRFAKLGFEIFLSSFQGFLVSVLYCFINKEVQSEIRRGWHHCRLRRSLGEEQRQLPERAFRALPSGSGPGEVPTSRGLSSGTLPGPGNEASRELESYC

[8] = molecular target: T4, human glucagon-like peptide 1 receptor (hGLP-1R) (human, UniProt P43220 24-463); assay: SPA competition against 125I-labelled GLP-1 amide on 293HEK hGLP-1R membranes, Cheng-Prusoff
T4 construct: whole, on cells; Assay used crude plasma membranes of the expressing 293HEK cells

[9] = Buffer 1 (20 mM Histidine, pH 6.0)
[10] = Buffer 2 (10 mM Histidine, 150 nM NaCl, pH 6.0)
[11] = Buffer 3 (10 mM Histidine, 300 mM sorbitol, pH 6.0)
[12] = Buffer 4 (10 mM Histidine, 0.02% Tween 80, pH 6.0)
[13] = Buffer 5 (10 mM Histidine, 300 mM sucrose, pH 6.0)

solubility [1]: maintains good solubility
30° C. vs 4° C. Recovery 4 wk ([1]; Buffer P5 (pH 5.0)): 102%
40° C. vs 4° C. Recovery 4 wk ([1]; Buffer P5 (pH 5.0)): 99%
30° C. vs 4° C. Recovery 4 wk ([1]; Buffer P6 (pH 6.0)): 101%
40° C. vs 4° C. Recovery 4 wk ([1]; Buffer P6 (pH 6.0)): 103%
% Main Peak Day 0 ([2]; Buffer P5 (pH 5)): 96.53%
4° C. % Main Peak ([2]; Buffer P5 (pH 5)): 96.93%
30° C. % Main Peak ([2]; Buffer P5 (pH 5)): 93.82%
40° C. % Main Peak ([2]; Buffer P5 (pH 5)): 91.59%
main peak changes ([2]; Buffer P5, pH 5 at 4-wk 30° C. vs 4° C.): less than 4%
main peak changes ([2]; Buffer P5, pH 5 at 4-wk 40° C. vs 4° C.): < 6%
% Main Peak Day 0 ([2]; Buffer P6 (pH 6)): 97.00%
4° C. % Main Peak ([2]; Buffer P6 (pH 6)): 95.89%
30° C. % Main Peak ([2]; Buffer P6 (pH 6)): 95.17%
40° C. % Main Peak ([2]; Buffer P6 (pH 6)): 90.57%
main peak changes ([2]; Buffer P6, pH 6 at 4-wk 30° C. vs 4° C.): < 1%
main peak changes ([2]; Buffer P6, pH 6 at 4-wk 40° C. vs 4° C.): < 6%
fibrillation as measured by the Thioflavin T binding assay ([3]; pH 6, 96 hours, mechanical stress): did not demonstrate fibrillation
Thioflavin T fluorescence t = 0 h [3, 9]: 84.5 fluorescence units
Thioflavin T fluorescence t = 48 h [3, 9]: 89.5 fluorescence units
Thioflavin T fluorescence t = 96 h [3, 9]: 98.1 fluorescence units
Thioflavin T fluorescence t = 0 h [3, 10]: 188.4 fluorescence units
Thioflavin T fluorescence t = 48 h [3, 10]: 211.6 fluorescence units
Thioflavin T fluorescence t = 96 h [3, 10]: 231.4 fluorescence units
Thioflavin T fluorescence t = 0 h [3, 11]: 83.6 fluorescence units
Thioflavin T fluorescence t = 48 h [3, 11]: 90.9 fluorescence units
Thioflavin T fluorescence t = 96 h [3, 11]: 101.7 fluorescence units
Thioflavin T fluorescence t = 0 h [3, 12]: 70.1 fluorescence units
Thioflavin T fluorescence t = 48 h [3, 12]: 76.9 fluorescence units
Thioflavin T fluorescence t = 96 h [3, 12]: 83.9 fluorescence units
Thioflavin T fluorescence t = 0 h [3, 13]: 86.3 fluorescence units
Thioflavin T fluorescence t = 48 h [3, 13]: 87.5 fluorescence units
Thioflavin T fluorescence t = 96 h [3, 13]: 98.9 fluorescence units
Molecule: CC(C)C[C@H](NC(=O)[C@H](Cc1c[nH]c2ccccc12)NC(=O)[C@H](CCC(=O)O)NC(=O)[C@@H](NC(=O)[C@H](Cc1ccccc1)NC(=O)[C@H](CCC(=O)O)NC(=O)[C@H](CCC(N)=O)NC(=O)[C@H](C)NC(=O)[C@H](CCCCN)NC(=O)[C@H](CCCCN)NC(=O)C(C)(C)NC(=O)[C@H](CC(=O)O)NC(=O)[C@H](CC(C)C)NC(=O)[C@H](Cc1ccc(O)cc1)NC(=O)[C@H](CCCCN)NC(=O)[C@H](CO)NC(=O)[C@H](Cc1ccc(O)cc1)NC(=O)[C@H](CC(=O)O)NC(=O)[C@H](CO)NC(=O)[C@@H](NC(=O)[C@H](Cc1ccccc1)NC(=O)[C@@H](NC(=O)CNC(=O)[C@H](CCC(N)=O)NC(=O)[C@H](CO)NC(=O)[C@@H](N)Cc1ccc(O)cc1)[C@@H](C)O)[C@@H](C)O)C(C)C)C(=O)N[C@@H](CC(C)C)C(=O)N[C@@H](CCCCN)C(=O)N[C@H](C(=O)NCC(=O)N1CCC[C@H]1C(=O)N[C@@H](CO)C(=O)N[C@@H](CO)C(=O)NCC(=O)N[C@@H](C)C(=O)N1CCC[C@H]1C(=O)N1CCC[C@H]1C(=O)N[C@@H](CCCCN)C(=O)N[C@@H](CO)C(=O)N[C@@H](CCCCN)C(N)=O)[C@@H](C)O [SEQ ID NO: 2] (H-YSQGTFTSDYSKYLD[Aib]KKAQEFVEWLLKTGPSSGAPPKSK-NH2; N-terminus assumed)
Physical appearance ([1]; 4° C., 30° C. and 40° C., pH 5 and pH 6, over 4 weeks): clear to colorless, with no opalescences and no particles
Blood glucose levels (blood glucose levels; 0.3 μg/kg subcutaneously, 0 minutes): 140.2 ± 2.4 mg/dL
Blood glucose levels (blood glucose levels; 0.3 μg/kg subcutaneously, 15 minutes): 185.6 ± 7.5 mg/dL
Blood glucose levels (blood glucose levels; 0.3 μg/kg subcutaneously, 30 minutes): 193.3 ± 6.0 mg/dL
Blood glucose levels (blood glucose levels; 0.3 μg/kg subcutaneously, 60 minutes): 167.4 ± 6.6 mg/dL
Blood glucose levels (blood glucose levels; 0.3 μg/kg subcutaneously, 120 minutes): 147.0 ± 5.1 mg/dL
Blood glucose levels (blood glucose levels; 1 μg/kg subcutaneously, 0 minutes): 140.0 ± 2.0 mg/dL
Blood glucose levels (blood glucose levels; 1 μg/kg subcutaneously, 15 minutes): 200.6 ± 5.8 mg/dL
Blood glucose levels (blood glucose levels; 1 μg/kg subcutaneously, 30 minutes): 204.8 ± 8.9 mg/dL
Blood glucose levels (blood glucose levels; 1 μg/kg subcutaneously, 60 minutes): 161.9 ± 4.0 mg/dL
Blood glucose levels (blood glucose levels; 1 μg/kg subcutaneously, 120 minutes): 145.6 ± 3.9 mg/dL
Blood glucose levels (blood glucose levels; 3 μg/kg subcutaneously, 0 minutes): 141.5 ± 3.0 mg/dL
Blood glucose levels (blood glucose levels; 3 μg/kg subcutaneously, 15 minutes): 245.5 ± 10.0 mg/dL
Blood glucose levels (blood glucose levels; 3 μg/kg subcutaneously, 30 minutes): 265.6 ± 13.3 mg/dL
Blood glucose levels (blood glucose levels; 3 μg/kg subcutaneously, 60 minutes): 188.1 ± 9.3 mg/dL
Blood glucose levels (blood glucose levels; 3 μg/kg subcutaneously, 120 minutes): 143.9 ± 3.8 mg/dL
Blood glucose levels (blood glucose levels; 10 μg/kg subcutaneously, 0 minutes): 147.7 ± 4.4 mg/dL
Blood glucose levels (blood glucose levels; 10 μg/kg subcutaneously, 15 minutes): 252.3 ± 11.2 mg/dL
Blood glucose levels (blood glucose levels; 10 μg/kg subcutaneously, 30 minutes): 271.8 ± 13.8 mg/dL
Blood glucose levels (blood glucose levels; 10 μg/kg subcutaneously, 60 minutes): 202.1 ± 7.9 mg/dL
Blood glucose levels (blood glucose levels; 10 μg/kg subcutaneously, 120 minutes): 146.3 ± 5.5 mg/dL
ED50 (blood glucose levels; calculated on the 30 minute glucose measurements, 10 μg/kg taken as maximum, subcutaneous): 1.36 µg/kg

EC50, hGR stimulated cAMP functional assay (HTRF, hGR-HEK293 cells) [4]: 0.0203 nM
Ki [5]: 0.286 nM
Ki [6]: 1.82 nM
Ki [7]: 532 nM
Ki [8]: 2540 nM
B1: compound of SEQ ID NO: 2 (peptide)
peptide: YSQGTFTSDYSKYLD[Aib]KKAQEFVEWLLKTGPSSGAPPKSK-NH2
modifications: also: acetate salt
notes: Synthetic peptide made on Rink amide resin; acetate salt
